Experimental data: patent publication US12186283B2, “Bismuth-thiol compositions and methods of use” (Microbion Corporation, priority 2018, dated 2025)
Values after ≈ are worked out from the molar mass of the structure shown.

Assays:
P. aeruginosa = test: Checkerboard FIC assay, BisEDT with CF agents (Example 10); assay type: cell-based, Pseudomonas aeruginosa; details: agent alone, as observed during FIC testing
Klebsiella pneumoniae = test: Broth microdilution MIC (Example 12)
[1] = test system: Burkholderia cepacia complex; test: Broth microdilution MIC (Example 10); details: initial MIC testing
Escherichia coli = test: Broth microdilution MIC (Example 12)
Enterobacteriaceae = test: Broth microdilution MIC (Example 11), group statement; assay type: cell-based; details: ATCC QC E. coli, ESBL-, KPC- and NDM-1-positive isolates
N. gonorrhoeae = test: Agar dilution MIC (Example 11); assay type: cell-based, Neisseria gonorrhoeae; details: QC isolate, ciprofloxacin-resistant and ceftriaxone non-susceptible isolates

`C[C@@H](O)[C@H]1C(=O)N2C(C(=O)O)=C(S[C@@H]3CN[C@H](C(=O)N(C)C)C3)[C@H](C)[C@H]12` [MEM] was tested, and the MIC (P. aeruginosa; P. aeruginosa isolate 6322) was 16 µg/mL, the MIC (P. aeruginosa; P. aeruginosa isolate 6977) was 8 µg/mL and the MIC (P. aeruginosa; P. aeruginosa isolate 7745) was 16 µg/mL. It also gave an MIC (P. aeruginosa; P. aeruginosa isolate 8798) of 32 µg/mL, an MIC (P. aeruginosa; P. aeruginosa isolate 9108) of 1 µg/mL and an MIC (Klebsiella pneumoniae; K. pneumoniae ATCC BAA-1705, QC organism) of 8 µg/mL (≈ 20.9 µM). The MIC (Klebsiella pneumoniae; Klebsiella pneumoniae ATCC BAA-1705, ESBL/KPC) was 8 µg/mL (≈ 20.9 µM), the MIC (Klebsiella pneumoniae; Klebsiella pneumoniae CDC 112, KPC) was greater than 8 µg/mL and the MIC (Klebsiella pneumoniae; Klebsiella pneumoniae CDC 113, ESBL/KPC) was greater than 8 µg/mL. The MIC (Klebsiella pneumoniae; Klebsiella pneumoniae CDC 115, ESBL/KPC) was greater than 8 µg/mL, the MIC (Klebsiella pneumoniae; Klebsiella pneumoniae CDC 120, ESBL/KPC) was greater than 8 µg/mL and the MIC (Klebsiella pneumoniae; Klebsiella pneumoniae CDC 126, ESBL/KPC) was 4 µg/mL (≈ 10.4 µM). For the same compound, the MIC (Klebsiella pneumoniae; Klebsiella pneumoniae CDC 129, ESBL/KPC) was 8 µg/mL (≈ 20.9 µM), the MIC (Klebsiella pneumoniae; Klebsiella pneumoniae CDC 135, ESBL/VIM) was 1 µg/mL (≈ 2.61 µM) and the MIC (Klebsiella pneumoniae; Klebsiella pneumoniae CDC 138, ESBL/NDM) was greater than 8 µg/mL. It also gave an MIC (Klebsiella pneumoniae; Klebsiella pneumoniae CDC 158, ESBL/NDM/OXA) greater than 8 µg/mL, an MIC (Klebsiella pneumoniae; Klebsiella pneumoniae MMX 9029, ESBL) of 0.015 µg/mL (≈ 0.0391 µM) and an MIC ([1]; B. cenocepacia isolate 0548 (CIP-R)) of 4 µg/mL (≈ 10.4 µM). For the same compound, the MIC ([1]; B. cenocepacia isolate 0813 (CPI-I)) was 2 µg/mL (≈ 5.22 µM), the MIC ([1]; B. cenocepacia isolate 1631) was 4 µg/mL (≈ 10.4 µM) and the MIC ([1]; B. cenocepacia isolate 1783) was 4 µg/mL (≈ 10.4 µM). The MIC ([1]; B. cenocepacia isolate 8555) was 4 µg/mL (≈ 10.4 µM), the MIC ([1]; B. cepacia isolate 0546) was 4 µg/mL (≈ 10.4 µM) and the MIC ([1]; B. cepacia isolate 0547) was 2 µg/mL (≈ 5.22 µM). The MIC ([1]; B. cepacia isolate 1793) was 4 µg/mL (≈ 10.4 µM), the MIC ([1]; B. cepacia isolate 1794) was 4 µg/mL (≈ 10.4 µM) and the MIC ([1]; B. cepacia isolate 9040) was 4 µg/mL (≈ 10.4 µM). It also gave an MIC ([1]; B. multivorans isolate 1580 (CIP-R)) of 2 µg/mL (≈ 5.22 µM), an MIC ([1]; B. multivorans isolate 1791) of 4 µg/mL (≈ 10.4 µM) and an MIC ([1]; B. multivorans isolate 1795 (MEM-I, CIP-R)) of 8 µg/mL (≈ 20.9 µM). The MIC ([1]; B. multivorans isolate 5665 (CIP-I)) was 2 µg/mL (≈ 5.22 µM), the MIC ([1]; B. multivorans isolate 8952 (CIP-I)) was 2 µg/mL (≈ 5.22 µM) and the MIC (Escherichia coli; E. coli ATCC 25922, QC organism) was no more than 0.008 µg/mL. The MIC (Escherichia coli; E. coli ATCC 35218, QC organism) was no more than 0.008 µg/mL, the MIC (Escherichia coli; Escherichia coli ATCC 35218, ESBL) was no more than 0.008 µg/mL and the MIC (Escherichia coli; Escherichia coli ATCC BAA-2471, NDM) was greater than 8 µg/mL. It also gave an MIC (Escherichia coli; Escherichia coli CDC 114, ESBL/KPC) of 2 µg/mL (≈ 5.22 µM), an MIC (Escherichia coli; Escherichia coli CDC 118, ESBL/NDM) of 0.06 µg/mL (≈ 0.156 µM) and an MIC (Escherichia coli; Escherichia coli CDC 435, NDM) greater than 8 µg/mL. It also gave an MIC (Escherichia coli; Escherichia coli CDC 451, KPC) of 1 µg/mL (≈ 2.61 µM), an MIC (Escherichia coli; Escherichia coli CDC 503, ESBL/NDM) of 8 µg/mL (≈ 20.9 µM) and an MIC (Escherichia coli; Escherichia coli MMX 5745, KPC) of 2 µg/mL (≈ 5.22 µM). It also gave an MIC (Escherichia coli; Escherichia coli MMX 5755, ESBL) of 0.015 µg/mL (≈ 0.0391 µM), an MIC (Escherichia coli; Escherichia coli MMX 5756, ESBL) of no more than 0.008 µg/mL and an MIC (Escherichia coli; Escherichia coli MMX 5758, ESBL) of no more than 0.008 µg/mL.
With `CC(S)C(C)S.[Bi]` (centres unmarked) [BisBDT, bismuth-2,3-butanedithiol] the “MIC values (range across isolates)” value (Enterobacteriaceae) was 0.5 to 2 µg/mL and the “MIC values (range across isolates)” value (N. gonorrhoeae) was 0.06 to 0.25 µg/mL.
